Experiments:
Assay in all cases: competitive isoTOP-ABPP
Format in all cases: binding
[1] = molecular target: T1, PNPO Pyridoxine-5-phosphate oxidase (Homo sapiens, UniProt Q9NVS9); conditions: 50 uM, in vitro; for isoTOP-ABPP ratio (R) at liganded lysine Q9NVS9_K100: sol, 231
T1 construct: endogenous in cells; host or cells: MDA-MB-231 (soluble fraction of lysate)
T1 sequence (Q9NVS9 1-261): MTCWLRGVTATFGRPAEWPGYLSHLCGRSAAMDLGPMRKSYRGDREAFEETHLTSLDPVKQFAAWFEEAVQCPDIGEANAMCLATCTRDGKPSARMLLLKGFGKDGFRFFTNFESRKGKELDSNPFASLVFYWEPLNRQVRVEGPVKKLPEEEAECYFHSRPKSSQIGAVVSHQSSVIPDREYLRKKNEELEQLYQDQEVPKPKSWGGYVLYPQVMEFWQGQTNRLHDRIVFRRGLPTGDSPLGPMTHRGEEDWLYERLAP
How it was run: (§1)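 Lysine engagement is reported as R, the MS1 peak-area ratio of heavy-tagged DMSO to light-tagged compound samples. Final fragment concentrations were 50 μM for activated esters and 100 μM for guanidinylating agents; STP-alkyne probe 0.1 mM, 1 h.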

EEF2 Elongation factor 2 = molecular target: T2, EEF2 Elongation factor 2 (Homo sapiens, UniProt P13639); conditions: 50 uM, in vitro; for isoTOP-ABPP ratio (R) at liganded lysine P13639_K235 / isoTOP-ABPP ratio (R) at liganded lysine P13639_K318: sol, 231
T2 construct: isoTOP-ABPP experiments performed in cell lysates (in vitro); endogenous in cells; host or cells: soluble proteome of human cancer cell lines (MDA-MB-231; Ramos and Jurkat also prepared)
How it was run: as §1

FAH Fumarylacetoacetase = molecular target: T3, FAH Fumarylacetoacetase (Homo sapiens, UniProt P16930); conditions: 50 uM, in vitro; for isoTOP-ABPP ratio (R) at liganded lysine P16930_K241: sol, 231
T3 construct: isoTOP-ABPP experiments performed in cell lysates (in vitro); endogenous in cells; host or cells: soluble proteome of human cancer cell lines (MDA-MB-231; Ramos and Jurkat also prepared)
T3 sequence (P16930 1-419): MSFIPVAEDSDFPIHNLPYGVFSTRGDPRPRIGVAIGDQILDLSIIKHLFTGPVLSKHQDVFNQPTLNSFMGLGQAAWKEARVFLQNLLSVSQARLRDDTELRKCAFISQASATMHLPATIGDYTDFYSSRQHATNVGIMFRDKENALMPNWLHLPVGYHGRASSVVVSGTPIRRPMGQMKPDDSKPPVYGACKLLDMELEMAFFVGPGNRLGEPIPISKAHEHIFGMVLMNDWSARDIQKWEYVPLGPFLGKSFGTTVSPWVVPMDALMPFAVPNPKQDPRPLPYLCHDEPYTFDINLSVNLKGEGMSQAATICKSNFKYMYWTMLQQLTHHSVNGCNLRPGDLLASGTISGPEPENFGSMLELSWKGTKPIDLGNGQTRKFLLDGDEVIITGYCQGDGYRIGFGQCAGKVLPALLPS
How it was run: as §1

[2] = molecular target: T4, GOLGB1 Golgin subfamily B member 1 (Homo sapiens, UniProt Q14789); conditions: 50 uM, in vitro; for isoTOP-ABPP ratio (R) at liganded lysine Q14789_K103: sol, 231
T4 construct: isoTOP-ABPP experiments performed in cell lysates (in vitro); endogenous in cells; host or cells: soluble proteome of human cancer cell lines (MDA-MB-231, Ramos, Jurkat)
T4 sequence (Q14789 whole entry): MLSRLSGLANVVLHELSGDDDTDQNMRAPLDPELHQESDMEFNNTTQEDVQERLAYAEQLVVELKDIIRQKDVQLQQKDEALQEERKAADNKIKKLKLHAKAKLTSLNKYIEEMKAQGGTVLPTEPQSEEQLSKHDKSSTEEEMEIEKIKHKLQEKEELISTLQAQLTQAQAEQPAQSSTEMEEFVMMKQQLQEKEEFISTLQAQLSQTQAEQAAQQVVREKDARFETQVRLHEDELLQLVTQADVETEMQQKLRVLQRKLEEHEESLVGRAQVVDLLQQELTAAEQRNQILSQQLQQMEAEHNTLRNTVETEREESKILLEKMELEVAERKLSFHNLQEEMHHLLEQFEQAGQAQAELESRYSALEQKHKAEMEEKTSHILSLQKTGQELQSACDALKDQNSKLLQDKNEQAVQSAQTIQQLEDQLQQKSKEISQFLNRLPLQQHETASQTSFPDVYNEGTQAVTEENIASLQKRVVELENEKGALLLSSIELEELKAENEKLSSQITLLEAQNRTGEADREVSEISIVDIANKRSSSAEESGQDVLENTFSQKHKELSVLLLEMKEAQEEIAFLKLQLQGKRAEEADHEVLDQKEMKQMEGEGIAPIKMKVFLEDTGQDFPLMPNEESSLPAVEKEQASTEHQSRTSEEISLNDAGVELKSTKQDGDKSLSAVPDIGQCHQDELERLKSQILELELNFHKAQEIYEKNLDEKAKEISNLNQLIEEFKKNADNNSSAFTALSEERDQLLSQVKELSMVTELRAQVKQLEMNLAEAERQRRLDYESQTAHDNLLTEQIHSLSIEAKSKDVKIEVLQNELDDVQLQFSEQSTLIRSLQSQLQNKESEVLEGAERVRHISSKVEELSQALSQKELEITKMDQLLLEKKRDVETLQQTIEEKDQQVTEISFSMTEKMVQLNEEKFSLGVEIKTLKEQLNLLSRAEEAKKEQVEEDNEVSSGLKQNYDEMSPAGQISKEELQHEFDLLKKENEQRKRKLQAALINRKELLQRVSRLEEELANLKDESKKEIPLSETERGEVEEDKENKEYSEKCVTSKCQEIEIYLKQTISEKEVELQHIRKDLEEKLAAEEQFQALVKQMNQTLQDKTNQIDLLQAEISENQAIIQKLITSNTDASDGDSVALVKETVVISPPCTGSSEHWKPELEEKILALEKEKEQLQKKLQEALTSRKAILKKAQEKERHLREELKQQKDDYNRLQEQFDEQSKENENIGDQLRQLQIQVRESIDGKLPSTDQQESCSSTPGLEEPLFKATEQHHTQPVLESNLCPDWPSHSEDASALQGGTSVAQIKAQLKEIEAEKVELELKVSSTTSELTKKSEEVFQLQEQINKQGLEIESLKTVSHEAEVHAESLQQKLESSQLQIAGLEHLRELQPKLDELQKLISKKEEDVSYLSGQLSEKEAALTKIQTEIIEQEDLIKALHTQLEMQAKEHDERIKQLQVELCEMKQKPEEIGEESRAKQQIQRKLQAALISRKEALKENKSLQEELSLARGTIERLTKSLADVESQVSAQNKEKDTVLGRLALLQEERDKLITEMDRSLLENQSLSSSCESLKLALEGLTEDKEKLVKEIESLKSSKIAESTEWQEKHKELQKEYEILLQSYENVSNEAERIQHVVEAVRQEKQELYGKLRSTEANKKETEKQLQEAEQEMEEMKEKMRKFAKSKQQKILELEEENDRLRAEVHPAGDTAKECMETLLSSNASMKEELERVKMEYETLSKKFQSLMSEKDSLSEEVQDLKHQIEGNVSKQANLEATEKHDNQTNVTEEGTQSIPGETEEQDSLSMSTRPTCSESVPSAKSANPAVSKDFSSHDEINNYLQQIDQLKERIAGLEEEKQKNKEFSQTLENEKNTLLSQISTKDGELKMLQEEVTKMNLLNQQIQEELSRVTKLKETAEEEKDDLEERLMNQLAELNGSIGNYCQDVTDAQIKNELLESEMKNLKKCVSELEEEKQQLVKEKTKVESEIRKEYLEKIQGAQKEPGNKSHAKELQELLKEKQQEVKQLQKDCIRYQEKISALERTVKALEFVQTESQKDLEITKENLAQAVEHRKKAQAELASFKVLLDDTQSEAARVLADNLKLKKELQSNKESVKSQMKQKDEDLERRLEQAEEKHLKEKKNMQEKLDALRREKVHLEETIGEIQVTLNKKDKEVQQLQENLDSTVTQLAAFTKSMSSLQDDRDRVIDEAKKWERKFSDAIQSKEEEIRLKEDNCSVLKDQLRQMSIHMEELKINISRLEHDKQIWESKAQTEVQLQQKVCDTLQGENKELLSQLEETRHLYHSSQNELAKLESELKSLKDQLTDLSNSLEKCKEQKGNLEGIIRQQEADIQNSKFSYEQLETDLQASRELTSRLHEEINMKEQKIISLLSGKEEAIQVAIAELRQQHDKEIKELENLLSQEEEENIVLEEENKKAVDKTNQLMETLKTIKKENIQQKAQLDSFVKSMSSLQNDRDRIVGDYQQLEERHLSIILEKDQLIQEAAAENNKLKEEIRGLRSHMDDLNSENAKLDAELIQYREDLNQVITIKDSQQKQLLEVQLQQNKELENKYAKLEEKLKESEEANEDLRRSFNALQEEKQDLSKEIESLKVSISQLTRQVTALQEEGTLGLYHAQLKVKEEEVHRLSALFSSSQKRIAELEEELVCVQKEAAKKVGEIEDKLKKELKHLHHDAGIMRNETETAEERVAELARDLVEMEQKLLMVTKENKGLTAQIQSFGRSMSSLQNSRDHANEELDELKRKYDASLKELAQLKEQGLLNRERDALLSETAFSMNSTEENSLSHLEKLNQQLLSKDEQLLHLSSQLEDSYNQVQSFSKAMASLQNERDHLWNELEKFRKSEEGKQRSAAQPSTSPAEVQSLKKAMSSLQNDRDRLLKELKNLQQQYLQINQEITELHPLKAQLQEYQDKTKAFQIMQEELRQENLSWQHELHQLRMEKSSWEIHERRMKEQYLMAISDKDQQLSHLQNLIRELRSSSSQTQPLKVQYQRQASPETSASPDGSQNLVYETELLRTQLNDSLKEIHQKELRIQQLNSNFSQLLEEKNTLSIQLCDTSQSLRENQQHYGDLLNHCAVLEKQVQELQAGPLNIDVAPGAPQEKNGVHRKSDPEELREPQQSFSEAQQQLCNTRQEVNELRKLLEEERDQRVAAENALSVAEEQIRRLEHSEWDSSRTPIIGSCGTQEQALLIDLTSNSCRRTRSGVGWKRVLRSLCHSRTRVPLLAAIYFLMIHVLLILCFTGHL
How it was run: as §1

[3] = molecular target: T5, UCHL5 Ubiquitin carboxyl-terminal hydrolase isozyme L5 (Homo sapiens, UniProt Q9Y5K5); conditions: 50 uM, in vitro; for isoTOP-ABPP ratio (R) at liganded lysine Q9Y5K5_K323: sol, 231
T5 construct: endogenous in cells; host or cells: MDA-MB-231 (soluble fraction of lysate)
T5 sequence (Q9Y5K5 1-329): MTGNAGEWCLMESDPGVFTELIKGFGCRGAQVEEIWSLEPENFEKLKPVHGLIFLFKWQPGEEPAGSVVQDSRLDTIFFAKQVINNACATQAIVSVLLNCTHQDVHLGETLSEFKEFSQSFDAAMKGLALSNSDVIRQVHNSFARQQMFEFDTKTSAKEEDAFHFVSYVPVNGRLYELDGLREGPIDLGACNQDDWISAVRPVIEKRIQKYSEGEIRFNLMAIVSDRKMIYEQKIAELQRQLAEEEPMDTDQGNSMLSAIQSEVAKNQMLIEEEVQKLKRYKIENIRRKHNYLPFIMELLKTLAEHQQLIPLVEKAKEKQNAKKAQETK
How it was run: as §1

[4] = molecular target: T6, NPEPPS Puromycin-sensitive aminopeptidase (Homo sapiens, UniProt P55786); conditions: 50 uM, in vitro; for isoTOP-ABPP ratio (R) at liganded lysine P55786_K712: sol, 231
T6 construct: isoTOP-ABPP experiments performed in cell lysates (in vitro); endogenous in cells; host or cells: soluble proteome of human cancer cell lines (MDA-MB-231, Ramos, Jurkat)
T6 sequence (P55786 whole entry): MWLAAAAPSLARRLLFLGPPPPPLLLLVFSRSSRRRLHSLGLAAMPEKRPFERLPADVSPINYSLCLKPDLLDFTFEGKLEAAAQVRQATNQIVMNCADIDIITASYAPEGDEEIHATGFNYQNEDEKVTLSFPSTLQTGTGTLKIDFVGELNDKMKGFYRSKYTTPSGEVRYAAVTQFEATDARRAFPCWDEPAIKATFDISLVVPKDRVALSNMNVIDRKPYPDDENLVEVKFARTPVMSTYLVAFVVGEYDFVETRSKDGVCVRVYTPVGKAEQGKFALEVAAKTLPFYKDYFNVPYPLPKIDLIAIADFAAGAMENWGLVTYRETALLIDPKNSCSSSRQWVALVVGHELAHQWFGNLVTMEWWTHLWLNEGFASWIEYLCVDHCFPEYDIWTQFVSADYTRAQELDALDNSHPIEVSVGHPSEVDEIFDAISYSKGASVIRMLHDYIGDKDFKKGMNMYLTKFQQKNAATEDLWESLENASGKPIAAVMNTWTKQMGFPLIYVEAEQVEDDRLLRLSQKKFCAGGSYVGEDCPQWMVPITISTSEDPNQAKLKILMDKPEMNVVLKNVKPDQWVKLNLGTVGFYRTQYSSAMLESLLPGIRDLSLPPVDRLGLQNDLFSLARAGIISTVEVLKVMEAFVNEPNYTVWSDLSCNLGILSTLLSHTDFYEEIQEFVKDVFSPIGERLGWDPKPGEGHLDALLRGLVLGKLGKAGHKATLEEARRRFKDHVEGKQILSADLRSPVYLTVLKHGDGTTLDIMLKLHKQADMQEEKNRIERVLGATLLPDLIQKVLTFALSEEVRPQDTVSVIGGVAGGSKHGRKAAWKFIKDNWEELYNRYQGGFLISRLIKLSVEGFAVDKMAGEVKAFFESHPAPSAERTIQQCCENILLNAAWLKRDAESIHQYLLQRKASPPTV
How it was run: as §1

| SMILES | isoTOP-ABPP reactivity ratio at lysine Q9NVS9_K100 ([1]; 231 sol) | isoTOP-ABPP reactivity ratio at lysine P13639_K235 (EEF2 Elongation factor 2; 231 sol) | isoTOP-ABPP reactivity ratio at lysine P13639_K318 (EEF2 Elongation factor 2; 231 sol) | isoTOP-ABPP reactivity ratio at lysine P16930_K241 (FAH Fumarylacetoacetase; 231 sol) | isoTOP-ABPP reactivity ratio at lysine Q14789_K103 ([2]; 231 sol) | isoTOP-ABPP reactivity ratio at lysine Q9Y5K5_K323 ([3]; 231 sol) | isoTOP-ABPP reactivity ratio at lysine P55786_K712 ([4]; 231 sol) | isoTOP-ABPP ratio (R) at liganded lysine Q9NVS9_K100 [1] | isoTOP-ABPP ratio (R) at liganded lysine P13639_K235 (EEF2 Elongation factor 2) | isoTOP-ABPP ratio (R) at liganded lysine P16930_K241 (FAH Fumarylacetoacetase) | isoTOP-ABPP ratio (R) at liganded lysine Q14789_K103 [2] | isoTOP-ABPP ratio (R) at liganded lysine Q9Y5K5_K323 [3] | isoTOP-ABPP ratio (R) at liganded lysine P55786_K712 [4] | isoTOP-ABPP ratio (R) at liganded lysine P13639_K318 (EEF2 Elongation factor 2) |
| --- | --- | --- | --- | --- | --- | --- | --- | --- | --- | --- | --- | --- | --- | --- |
| COc1cc(CCC(=O)Oc2ccc([N+](=O)[O-])cc2[N+](=O)[O-])cc(OC)c1OC [fragment 33, 2,4-Dinitrophenyl 3-(3,4,5-trimethoxyphenyl)propanoate] | 1.2 | 1.0 | 0.9 | 1.7 | 1.0 | 0.8 | 1.2 | – | – | – | – | – | – | – |
| O=C(Oc1ccc([N+](=O)[O-])cc1[N+](=O)[O-])C1CCN(C(=O)OCc2ccccc2)CC1 [fragment 34, 1-Benzyl 4-(2,4-dinitrophenyl) piperidine-1,4-dicarboxylate] | – | – | – | – | – | – | – | 0.9 | 1.0 | 1.2 | 0.9 | 0.9 | 11.0 | – |
| O=C(Oc1ccc([N+](=O)[O-])cc1[N+](=O)[O-])c1ccc2ccccc2n1 [fragment 35, 2,4-Dinitrophenyl quinoline-2-carboxylate] | – | – | – | – | – | – | – | 0.9 | 1.1 | 3.4 | 0.9 | 1.0 | 1.3 | 1.1 |
| O=C(CCc1coc2cc(F)ccc2c1=O)Oc1ccc([N+](=O)[O-])cc1[N+](=O)[O-] [fragment 36, 2,4-Dinitrophenyl 3-(7-fluoro-4-oxo-4H-chromen-3-yl)propanoate] | – | – | – | – | – | – | – | 1.0 | 1.0 | 3.6 | 0.9 | 0.8 | 2.7 | 1.0 |
| O=C(Oc1ccc([N+](=O)[O-])cc1[N+](=O)[O-])c1ccc(-c2ccccc2)cc1 [fragment 37, 2,4-Dinitrophenyl [1,1′-biphenyl]-4-carboxylate] | – | – | – | – | – | – | – | 0.9 | 1.0 | 1.0 | 0.9 | 0.9 | 0.9 | 1.0 |
| O=C(CC12CC3CC(CC(C3)C1)C2)Oc1ccc([N+](=O)[O-])cc1[N+](=O)[O-] [fragment 38, 2,4-Dinitrophenyl 2-(adamantan-1-yl)acetate] | – | – | – | – | – | – | – | 0.9 | 0.9 | 1.0 | 0.9 | 0.9 | 1.0 | 0.9 |
| O=C(Oc1ccc([N+](=O)[O-])cc1[N+](=O)[O-])c1ccc(Oc2ccccc2)cc1 [fragment 39, 2,4-Dinitrophenyl 4-phenoxybenzoate] | – | – | – | – | – | – | – | 0.9 | 0.9 | 1.2 | 0.9 | 0.9 | 0.9 | 0.9 |

— patent US20210255193A1, “LYSINE REACTIVE PROBES AND USES THEREOF” (The Scripps Research Institute, priority 2017, published 2021)
